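Cultured in 96-well plates, cells were exposed to test compound for 48 hours across five concentrations. The concentration for full growth arrest is given as TGI.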
Assays:
Experiment in all cases: DTP human tumour cell line panel, 48 h
786-0 renal = tested on: 786-0 renal
A549 NSCLC = tested on: A549 NSCLC
BT-549 breast = tested on: BT-549 breast
CCRF-CEM leukemia = tested on: CCRF-CEM leukemia
DLD-1 colon = tested on: DLD-1 colon
HCC-2998 colon = tested on: HCC-2998 colon
HL-60(TB) leukemia = tested on: HL-60(TB) leukemia
HS 578T breast = tested on: HS 578T breast
IGROV1 ovarian = tested on: IGROV1 ovarian
K-562 leukemia = tested on: K-562 leukemia
LOX IMVI melanoma = tested on: LOX IMVI melanoma
M14 melanoma = tested on: M14 melanoma
MALME-3M melanoma = tested on: MALME-3M melanoma
MDA-MB-231 breast = tested on: MDA-MB-231 breast
MDA-N = tested on: MDA-N
OVCAR-4 ovarian = tested on: OVCAR-4 ovarian
SF-268 CNS = tested on: SF-268 CNS
SK-OV-3 ovarian = tested on: SK-OV-3 ovarian
SNB-19 CNS = tested on: SNB-19 CNS
TK-10 renal = tested on: TK-10 renal

Measured: TGI

CC(C)c1ccc(C2NC(=S)NC3=C2c2ccccc2C3=O)cc1 (stereo unspecified)
> 57.1 µM: TK-10 renal
> 68 µM: CCRF-CEM leukemia
32.5 µM: HL-60(TB) leukemia
42.1 µM: HS 578T breast
> 54.6 µM: IGROV1 ovarian
> 60 µM: 786-0 renal | K-562 leukemia
> 52.4 µM: SF-268 CNS
> 55.2 µM: SNB-19 CNS
> 57 µM: M14 melanoma
53.8 µM: OVCAR-4 ovarian
> 100 µM: DLD-1 colon
> 61.7 µM: SK-OV-3 ovarian
> 51.7 µM: HCC-2998 colon
31 µM: MDA-MB-231 breast
> 62.9 µM: MALME-3M melanoma
31.6 µM: BT-549 breast
35.1 µM: LOX IMVI melanoma
> 62.4 µM: A549 NSCLC
20.6 µM: MDA-N

COc1cccc2c1C1(O)C2CCCCCCCCCC12OCCCO2 (stereo unspecified)
> 61.8 µM: LOX IMVI melanoma
> 92.4 µM: CCRF-CEM leukemia
> 47.8 µM: HL-60(TB) leukemia
> 100 µM: all other assays above

N#COc1ccc(Oc2ccccc2)cc1
75.8 µM: HL-60(TB) leukemia
60 µM: CCRF-CEM leukemia
40.9 µM: LOX IMVI melanoma
not listed: BT-549 breast | HS 578T breast | MDA-MB-231 breast | MDA-N
> 100 µM: all other assays above

[N-]=[N+]=NC1(c2ccccc2)C(=O)C(Cl)=C(c2ccccc2)N(c2ccccc2)C1=O (stereo unspecified)
78.6 µM: SK-OV-3 ovarian
not listed: BT-549 breast | HS 578T breast | MDA-MB-231 breast | MDA-N
> 100 µM: all other assays above

O=C(O)[C@@H]1OCCOCCO[C@@H](C(=O)O)[C@H](C(=O)O)OCCOCCO[C@H]1C(=O)O
> 61.8 µM: DLD-1 colon
38.4 µM: HL-60(TB) leukemia
> 73.6 µM: CCRF-CEM leukemia
not listed: BT-549 breast | HS 578T breast | MDA-MB-231 breast | MDA-N
> 100 µM: all other assays above

CC(C)(C)C1CCC2c3c([nH]c4ncccc34)C3C(=O)N(c4ccccc4)C(=O)C3C2C1 (stereo unspecified)
not listed: BT-549 breast | HS 578T breast | MDA-MB-231 breast | MDA-N
> 100 µM: all other assays above

COc1ccc2c3c([nH]c(=O)c2c1C(=O)O)-c1ccccc1CC3
not listed: BT-549 breast | HS 578T breast | MDA-MB-231 breast | MDA-N
> 100 µM: all other assays above

Cc1ccc(S(=O)(=O)N/N=C(\c2nc3ccc([N+](=O)[O-])cc3[nH]c2=O)C(O)c2ccc([N+](=O)[O-])cc2)cc1 (stereo unspecified)
95.6 µM: HL-60(TB) leukemia
not listed: BT-549 breast | HS 578T breast | MDA-MB-231 breast | MDA-N
> 100 µM: all other assays above

Source: PubChem BioAssay (NCI)
